How the values were obtained:
Format in all cases: biochemical
recombinant human IMPDH2 [1] = target: T1, recombinant human IMPDH2 (Homo sapiens, UniProt P12268); assay: IMPDH activity assay kit, microplate, […] min preincubation; conditions: dose-dependent, 50-200 µM tested
T1 construct: commercial recombinant protein (R&D Systems); 514 residues full length; tetramer/octamer

recombinant human IMPDH2 [2] = target: T1, recombinant human IMPDH2; assay: IMPDH activity assay, 96-well screen; conditions: read-out: % inhibition at 10 μM
recombinant human IMPDH2 [3] = target: T1, recombinant human IMPDH2; assay: IMPDH activity assay kit, microplate; conditions: targeted to allosteric GTP-binding site of the CBS domain (site from docking)

T1 sequence (P12268 2-514): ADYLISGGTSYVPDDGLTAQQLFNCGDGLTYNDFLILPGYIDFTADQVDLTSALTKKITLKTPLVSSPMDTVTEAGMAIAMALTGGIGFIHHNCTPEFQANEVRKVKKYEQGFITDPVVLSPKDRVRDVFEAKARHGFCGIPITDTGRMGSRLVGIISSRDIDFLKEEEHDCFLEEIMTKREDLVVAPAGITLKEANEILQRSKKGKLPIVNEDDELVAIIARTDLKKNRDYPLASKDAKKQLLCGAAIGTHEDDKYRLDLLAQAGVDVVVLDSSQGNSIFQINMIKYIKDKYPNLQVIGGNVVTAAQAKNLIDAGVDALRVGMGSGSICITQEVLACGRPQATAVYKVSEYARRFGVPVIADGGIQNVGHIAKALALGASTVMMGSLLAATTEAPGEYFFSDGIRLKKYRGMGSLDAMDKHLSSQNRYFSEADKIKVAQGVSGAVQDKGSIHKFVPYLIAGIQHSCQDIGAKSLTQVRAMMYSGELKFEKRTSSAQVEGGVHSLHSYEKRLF

In the case of CCCCCCCC(=O)OC[C@H](COP(=O)(O)O[C@@H]1[C@H](O)[C@H](OP(=O)(O)O)[C@@H](O)[C@H](O)[C@H]1O)OC(=O)CCCCCCC [PI(3)P diC8], the “% inhibition at 200 μM” value (recombinant human IMPDH2 [1]) is reported as over 50%.

CN(C)c1ccc(C=c2sc3nc(=O)c(-c4ccccc4NC(=O)C(F)(F)F)nn3c2=O)cc1 [compound 5, comp-5] showed an inhibition at 10 µM (recombinant human IMPDH2 [2]) of over 32%.

Work on O=C1C=CC(=O)c2c(O)c(N3CCN(CCOCCO)CC3)c(Br)c(O)c21 [compound 10, Comp-10] yielded an IC50 (recombinant human IMPDH2 [3]) of about 260 nM.

Work on O=C1c2ccccc2C(=O)C1C(c1ccc([N+](=O)[O-])cc1)C1C(=O)c2ccccc2C1=O [compound 12, comp-12] yielded an inhibition at 10 µM (recombinant human IMPDH2 [2]) of over 52%.
